Experiment [1] has as its target T1, human CYP11B2 (Homo sapiens, UniProt P19099).
T1 construct: expressed in transfected cells
T1 sequence (P19099 25-503): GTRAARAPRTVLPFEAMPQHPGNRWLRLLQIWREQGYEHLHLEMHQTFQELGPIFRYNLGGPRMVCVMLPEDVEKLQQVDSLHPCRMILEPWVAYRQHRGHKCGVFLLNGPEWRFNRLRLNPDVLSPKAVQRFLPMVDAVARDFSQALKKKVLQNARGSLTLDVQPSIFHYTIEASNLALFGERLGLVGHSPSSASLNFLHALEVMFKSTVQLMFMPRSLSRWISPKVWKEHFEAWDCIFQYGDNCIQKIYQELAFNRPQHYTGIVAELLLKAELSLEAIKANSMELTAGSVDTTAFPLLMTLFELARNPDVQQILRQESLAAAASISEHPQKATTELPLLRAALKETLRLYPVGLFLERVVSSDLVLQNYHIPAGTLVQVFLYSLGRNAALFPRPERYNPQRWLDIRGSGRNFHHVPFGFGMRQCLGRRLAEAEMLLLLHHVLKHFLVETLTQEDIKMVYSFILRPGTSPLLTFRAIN
Briefly: G-402 cellular enzyme assay, human CYP11B2 (aldosterone release, HTRF). Particulars: G-402 cells expressing human CYP11B2; 1 μM Deoxycorticosterone; 16 h. Format: cell-based. The text has this:
(§1) Herein we identified the use of the G-402 cell line as a host cell to ectopically express (transiently or stably) enzymes of the CYP11 family. Specifically we developed stable G-402 cells expressing ectopically human CYP11B1, human CYP11B2, human CYP11A1, cynomolgus CYP11B1 or cynomolgus CYP11B2 enzyme activity. Importantly, the identified cell line G-402 expresses co-factors (adrenodoxin and adrenodoxin reductase) important for the activity of the CYP11 family, and no relevant enzyme activity of the CYP11 family (in comparison to H295R cells) was detected in these cells. Therefore the G-402 cell line is uniquely suited as a host cell for the ectopic expression of enzymes from the CYP11 family.
(§2) G-402 cells can be obtained from ATCC(CRL-1440) and were originally derived from a renal leiomyoblastoma.
(§3) The expression plasmids contains the ORF for either human/cyno CYP11B1 or CYP11B2 under the control of a suitable promoter (CMV-promoter) and a suitable resistance marker (neomycin). Using standard techniques the expression plasmid is transfected into G-402 cells and these cells are then selected for expressing the given resistance markers. Individual cell-clones are then selected and assessed for displaying the desired enzymatic activity using 11-Deoxycorticosterone (Cyp11B2) or 11-Deoxycortisol (Cyp11B1) as a substrate.
(§4) G-402 cells expressing CYP11 constructs were established as described above and maintained in McCoy's 5a Medium Modified, ATCC Catalog No. 30-2007 containing 10% FCS and 400 μg/ml G418 (Geneticin) at 37° C. under an atmosphere of 5% CO2/95% air. Cellular enzyme assays were performed in DMEM/F12 medium containing 2.5% charcoal treated FCS and appropriate concentration of substrate (0.3-10 uM 11-Deoxycorticosterone, 11-Deoxycortisol or Corticosterone). For assaying enzymatic activity, cells were plated onto 96 well plates and incubated for 16 h. An aliquot of the supernatant is then transferred and analyzed for the concentration of the expected product (Aldosterone for CYP11B2; Cortisol for CYP11B1). The concentrations of these steroids can be determined using HTRF assays from CisBio analyzing either Aldosterone or Cortisol.
(§5) Inhibition of the release of produced steroids can be used as a measure of the respective enzyme inhibition by test compounds added during the cellular enzyme assay. The dose dependent inhibition of enzymatic activity by a compound is calculated by means of plotting added inhibitor concentrations (x-axes) vs. measured steroid/product level (y-axes). The inhibition is then calculated by fitting the following 4-parameter sigmoidal function (Morgan-Mercer-Flodin (MMF) model) to the raw data points using the least squares method:
(§6) [formula] wherein A is the maximum y value, B is the EC50 factor determined using XLFit, C is the minimum y value and D is the slope value.
(§7) EC50 values for compounds claimed herein were tested with the G402-based assay system described. Cyp11B2 enzyme activity was tested in presence of 1 μM Deoxycorticosterone and variable amounts of inhibitors; Cyp11B1 enzyme activity was tested in presence of 1 μM Deoxycortisol and variable amounts of inhibitors.
A general note: In TR-FRET formats the signal depends on donor and acceptor labels being close together.

The target in experiment [2] is T2, human CYP11B1 (Homo sapiens, UniProt P15538).
T2 construct: expressed in transfected cells
T2 sequence (P15538 25-503): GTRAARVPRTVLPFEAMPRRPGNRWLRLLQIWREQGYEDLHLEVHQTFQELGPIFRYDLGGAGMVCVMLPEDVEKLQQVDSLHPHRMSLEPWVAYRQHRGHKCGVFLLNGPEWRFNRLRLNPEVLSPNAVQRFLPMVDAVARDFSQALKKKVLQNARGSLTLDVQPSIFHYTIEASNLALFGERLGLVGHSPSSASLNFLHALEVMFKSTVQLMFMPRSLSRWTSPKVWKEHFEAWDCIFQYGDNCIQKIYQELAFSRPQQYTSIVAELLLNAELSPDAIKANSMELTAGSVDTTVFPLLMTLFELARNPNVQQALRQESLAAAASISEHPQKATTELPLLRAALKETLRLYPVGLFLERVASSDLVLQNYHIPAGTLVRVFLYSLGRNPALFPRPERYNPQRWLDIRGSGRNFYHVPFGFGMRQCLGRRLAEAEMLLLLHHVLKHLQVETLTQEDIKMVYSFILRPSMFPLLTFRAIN
Briefly: G-402 cellular enzyme assay, human CYP11B1 (cortisol release, HTRF). Particulars: G-402 cells expressing human CYP11B1; 1 μM Deoxycortisol; 16 h. Format: cell-based.
From the text: as §1, §2, §3, §4, §5, §6, §7

Each structure is given as a SMILES string.

Broadly, the EC50 is the concentration giving half of the maximal effect. A high value points to lower potency in that assay.

As for `CC(=O)N(C)c1ccc(C(=O)c2cncn2C(C)C)cc1` [Example 59, N-[4-(3-Isopropyl-3H-imidazole-4-carbonyl)-phenyl]-N-methyl-acetamide], the EC50 was determined as 51.3 nM in experiment [1] and 5040 nM in experiment [2].
Regarding `CCn1cncc1C(=O)c1ccc(SC)c(OC)c1` [Example 60, (3-Ethyl-3H-imidazol-4-yl)-(3-methoxy-4-methylsulfanyl-phenyl)-methanone], the EC50 in experiment [1] is 4 nM; in experiment [2], 84.3 nM.
For `COc1cc(C(=O)c2cncn2C(C)C)ccc1SC` [Example 61, (3-Isopropyl-3H-imidazol-4-yl)-(3-methoxy-4-methylsulfanyl-phenyl)-methanone], the half-maximal effective concentration (EC50) in experiment [1] came to 0.2 nM; in experiment [2], 8.7 nM.
Consider `COc1cc(C(=O)c2cncn2C2CC2)ccc1SC` [Example 62, (3-Cyclopropyl-3H-imidazol-4-yl)-(3-methoxy-4-methylsulfanyl-phenyl)-methanone], for which the figures for the EC50 in experiment [1] and in experiment [2] were 2.8 nM and 46.1 nM, respectively.
In the case of `CCn1cncc1C(=O)c1ccc(F)c(C#N)c1` [Example 63, 5-(3-Ethyl-3H-imidazole-4-carbonyl)-2-fluoro-benzonitrile], the figures for the EC50 in experiment [1] and in experiment [2] were 335 nM and 3440 nM, respectively.
For `CC(C)n1cncc1C(=O)c1ccc(F)c(C#N)c1` [Example 64, 2-Fluoro-5-(3-isopropyl-3H-imidazole-4-carbonyl)-benzonitrile], in that order: 323 nM and 448 nM.
For `CCC(C)n1cncc1C(=O)c1ccc(F)c(C#N)c1` (stereo not shown) [Example 65, 5-(3-sec-Butyl-3H-imidazole-4-carbonyl)-2-fluoro-benzonitrile], the figures for the 50% effective concentration (EC50) in experiment [1] and in experiment [2] were 21.5 nM and 88.2 nM, respectively.
As to `N#Cc1cc(C(=O)c2cncn2C2CC2)ccc1F` [Example 66, 5-(3-Cyclopropyl-3H-imidazole-4-carbonyl)-2-fluoro-benzonitrile], the figures for the concentration for a half-maximal effect (EC50) in experiment [1] and in experiment [2] were 447 nM and 2210 nM, respectively.
For the compound `CCn1cncc1C(=O)c1ccc(N(C)C(C)=O)cc1` [Example 67, N-[4-(3-Ethyl-3H-imidazole-4-carbonyl)-phenyl]-N-methyl-acetamide], the EC50 in experiment [1] was found to be 291 nM; in experiment [2], 9910 nM.
The corresponding values for `Cn1cncc1C(=O)c1ccc(Br)cc1` [Example 68, (4-Bromo-phenyl)-(3-methyl-3H-imidazol-4-yl)-methanone] are 18.6 nM and 488 nM.
Regarding `CCSc1ccc(C(=O)c2cncn2CC)cc1` [Example 69, (3-Ethyl-3H-imidazol-4-yl)-(4-ethylsulfanyl-phenyl)-methanone], the EC50 came to 84.4 nM in experiment [1] and 329 nM in experiment [2].
`CCSc1ccc(C(=O)c2cncn2C2CC2)cc1` [Example 70, (3-Cyclopropyl-3H-imidazol-4-yl)-(4-ethylsulfanyl-phenyl)-methanone]: the EC50 was 22.8 nM in experiment [1] and 364 nM in experiment [2].
As to `CCSc1ccc(C(=O)c2cncn2C(C)C)cc1` [Example 71, (4-Ethylsulfanyl-phenyl)-(3-isopropyl-3H-imidazol-4-yl)-methanone], the concentration giving a half-maximal response (EC50) was 5.3 nM in experiment [1] and 253 nM in experiment [2].
With `CC(C)n1cncc1C(=O)c1ccc(Br)cc1` [Example 72, (4-Bromo-phenyl)-(3-isopropyl-3H-imidazol-4-yl)-methanone], the EC50 in experiment [1] is 5.2 nM; in experiment [2] it was 10.1 nM.
For `CCn1cncc1C(=O)c1ccc(SC(F)(F)F)cc1` [Example 74, (3-Ethyl-3H-imidazol-4-yl)-(4-trifluoromethylsulfanyl-phenyl)-methanone], in that order: 235 nM and 1320 nM.
The corresponding values for `CC(C)n1cncc1C(=O)c1ccc(SC(F)(F)F)cc1` [Example 75, (3-Isopropyl-3H-imidazol-4-yl)-(4-trifluoromethylsulfanyl-phenyl)-methanone] are 89.9 nM and 760 nM.
As for `CCC(CC)n1cncc1C(=O)c1ccc(SC(F)(F)F)cc1` [Example 76, [3-(1-Ethyl-propyl)-3H-imidazol-4-yl]-(4-trifluoromethylsulfanyl-phenyl)-methanone], the figures for the EC50 in experiment [1] and in experiment [2] were 42.7 nM and 264 nM, respectively.
`N#Cc1ccc(-n2cncc2C(=O)c2ccc(Cl)cc2)cc1Cl` [Example 77, 2-Chloro-4-[5-(4-chloro-benzoyl)-imidazol-1-yl]-benzonitrile]: the EC50 in experiment [1] is 1.9 nM; in experiment [2] it was 9.8 nM.
For `N#Cc1ccc(-n2cncc2C(=O)c2ccc(Cl)c(Cl)c2)cc1Cl` [Example 78, 2-Chloro-4-[5-(3,4-dichloro-benzoyl)-imidazol-1-yl]-benzonitrile], the EC50 in experiment [1] amounted to 3.7 nM; in experiment [2], 145 nM.
For the compound `COc1cc(C(=O)c2cncn2C)ccc1SC(F)(F)F` [Example 79, (3-Methoxy-4-trifluoromethylsulfanyl-phenyl)-(3-methyl-3H-imidazol-4-yl)-methanone], the EC50 amounted to 14.8 nM in experiment [1] and 1580 nM in experiment [2].
With `CCn1cncc1C(=O)c1ccc(SC(F)(F)F)c(OC)c1` [Example 80, (3-Ethyl-3H-imidazol-4-yl)-(3-methoxy-4-trifluoromethylsulfanyl-phenyl)-methanone], the EC50 in experiment [1] came out at 12.9 nM; in experiment [2] it was 634 nM.
The corresponding values for `COc1cc(C(=O)c2cncn2C(C)C)ccc1SC(F)(F)F` [Example 81, (3-Isopropyl-3H-imidazol-4-yl)-(3-methoxy-4-trifluoromethylsulfanyl-phenyl)-methanone] are 15.9 nM and 199 nM.
As for `CCC(CC)n1cncc1C(=O)c1ccc(C#N)cc1` [Example 82, 4-[3-(1-Ethyl-propyl)-3H-imidazole-4-carbonyl]-benzonitrile], the EC50 is 0.2 nM in experiment [1] and 3.3 nM in experiment [2].
On to `CCC(CC)n1cncc1C(=O)c1cccc(C#N)c1` [Example 83, 3-[3-(1-Ethyl-propyl)-3H-imidazole-4-carbonyl]-benzonitrile], for which the EC50 stood at 5.7 nM in experiment [1] and 57 nM in experiment [2].
For `CNc1ccc(C(=O)c2cncn2C)cc1` [Example 86, (4-Methylamino-phenyl)-(3-methyl-3H-imidazol-4-yl)-methanone], the EC50 in experiment [1] stood at 1620 nM; in experiment [2] it was 3750 nM.
The corresponding values for `CN(C=O)c1ccc(C(=O)c2cncn2C)cc1` [Example 87, N-Methyl-N-[4-(3-methyl-3H-imidazole-4-carbonyl)-phenyl]-formamide] are 186 nM and 30400 nM.
